The text below walks through data of patent publication US9783547B2, “Water soluble 4-azapodophyllotoxin analogs” (CENTRE NATIONAL DE LA RECHERCHE SCIENTIFIQUE (CNRS), priority 2014, dated 2017).

One assay concerns KB. Description: Cytotoxicity assay for human cancer cells (MTS). The note with it: KB epidermoid carcinoma, 72 h, read-out: IC 50 value. The class given is cell-based. How it is done:
(§1) Human cells were grown in DMEM medium supplemented with 10% fetal calf serum (Invitrogen), in the presence of penicillin, streptomycin and amphotericin B (Fungizone) in 75 cm^2 flask under 5% CO2. Cells were plated in 96-well tissue culture microplates at a density of 650 cells/well in 200 μl medium and treated 24 h later with the compound dissolved in DMSO at concentrations ranging from 0.5-10 μM applied using an automated benchstation (Beckman Biomek 3000). Controls received the same volume of DMSO as the test wells (1% final concentration). After a 72 h exposure time, MTS reagent (Promega) was added and incubated for 3 h at 37° C. and the absorbance was read at 490 nm. Results are expressed as the inhibition of cell proliferation calculated as the ratio [(OD490 treated/OD490 control)×100].

The next assay relates to SK-OV3. In words: Cytotoxicity assay for human cancer cells (MTS). The following applies: SK-OV-3, SK-OV3 ovarian adenocarcinoma, 72 h, read-out: IC 50 value. It is filed as cell-based. How it is done:
as §1

Another assay has as its system EPC. In words: Cytotoxicity assay for human cancer cells (MTS). It is filed as cell-based. As for the experimental part: as §1
Another assay deals with A2780cis. Description: Cytotoxicity assay for human cancer cells (MTS). The following applies: A2780cis ovarian carcinoma-cisplatin resistant, 72 h, read-out: IC 50 value. It is filed as cell-based. As for the experimental part:
as §1

In a further assay the test system is PC3. In words: Cytotoxicity assay for human cancer cells (MTS). It is filed as cell-based. As for the experimental part: as §1
Another assay concerns U87. In words: Cytotoxicity assay for human cancer cells (MTS). The class given is cell-based. The following applies: U-87 MG, U87 brain glioblastoma, astrocytoma, 72 h, read-out: IC 50 value. As for the experimental part: as §1
Another assay concerns HCT116. Description: Cytotoxicity assay for human cancer cells (MTS). It is filed as cell-based. The following applies: HCT-116, HCT116 colorectal carcinoma, 72 h, read-out: IC 50 value. As for the experimental part:
as §1

A further assay deals with HepG2. Description: Cytotoxicity assay for human cancer cells (MTS). The following applies: HepG2 hepatocellular carcinoma, 72 h, read-out: IC 50 value. It is filed as cell-based. How it is done:
as §1

The subject of the next assay is SF268. Description: Cytotoxicity assay for human cancer cells (MTS). It is filed as cell-based. The following applies: SF-268, SF268 brain glioma, 72 h, read-out: IC 50 value. As for the experimental part: as §1
The test system of another assay is MDA435. In words: Cytotoxicity assay for human cancer cells (MTS). It is filed as cell-based. The note with it: MDA435 breast ER− (highly metastatic to lungs), 72 h, read-out: IC 50 value. How it is done:
as §1

In the next assay the test system is LnaCap. In words: Cytotoxicity assay for human cancer cells (MTS). It is filed as cell-based. How it is done:
as §1

A further assay relates to A2780. Description: Cytotoxicity assay for human cancer cells (MTS). The class given is cell-based. The note with it: A2780 ovarian carcinoma, 72 h, read-out: IC 50 value. How it is done: as §1
For a further assay, the system named is A549. Description: Cytotoxicity assay for human cancer cells (MTS). The class given is cell-based. The note with it: A549 lung carcinoma, 72 h, read-out: IC 50 value. How it is done:
as §1

For assay [1], the system named is Eahy 926 endothelial cells (preformed cords on Matrigel). In words: Endothelial cell cords disruption assay. The following applies: 2 hour exposure. It is filed as cell-based, human. As for the experimental part: Eahy 926 endothelial cells were seeded onto a Matrigel layer in 6 well plates and allowed to form microvascular structures for 48 h (cords). […] In this experiment the control solvent used was 1% DMSO final concentration, because this solvent was required to solubilize combretastatin A4 used as a positive internal control. Digital photographs of the same plate region were taken before drug application and two hours after.
Another typical effect of antivascular agents is the disruption of preformed cords of endothelial cells grown on a Matrigel layer.

pIC50: −log10 of the molar value. Read-outs that look alike come from different tables or passages of the source.

As to `COc1cc(Nc2c3c(nc4cc5c(cc24)OCO5)CCCC3=O)cc(OC)c1OC.Cl` [SGR307.HCl, 6,7-(Methylenedioxy)-9-(3,4,5-trimethoxyphenylamino)-3,4-dihydroacridin-1(2H)-one, hydrochloride], the pIC50 in the assay with KB was 6.95; in the assay with SK-OV3, 6.95; with EPC (Homo sapiens, 72 h, EPC epithelioma (quiescent cell line), 72 h, MTS, read-out: IC 50 value), 6.63; with EPC (Homo sapiens, quiescent cell line EPC, values of running text, read-out: IC50 values), 6.51; in the assay on EPC (quiescent cell line EPC, values of running text, hydrochloride, read-out: IC50 values), 6.44; in the assay on A2780cis it was 6.96. The pIC50 was 6.89 to 6.92 in the assay with PC3 (PC-3, PC3 androgen-independent prostate adenocarcinoma, value of running text, read-out: IC50); 7.01 with PC3 (PC-3, PC3 prostate adenocarcinoma (androgen independent), 72 h, MTS, read-out: IC 50 value); 6.90 with U87; 7.17 in the assay on HCT116; 6.86 in the assay with HepG2; 6.82 in the assay with SF268. Also, the pIC50 in the assay with MDA435 was 6.91; in the assay on LnaCap (LnaCap androgen-dependent prostate adenocarcinoma, value of running text, read-out: IC50), 6.42 to 6.48; with LnaCap (LnaCap prostate adenocarcinoma (androgen dependent), 72 h, MTS, read-out: IC 50 value), 6.99; in the assay on A2780, 7.00; in the assay on A549, 6.80. Moreover, the “Lowest concentration at which destruction of endothelial cords is observed” value in [1] came out at 0.5 µM.
